# Measurements published in paper PMC6033896, “Discovery of Mcl-1 inhibitors from integrated high throughput and virtual screening” (Scientific Reports, 2018).
# Experiments:
# [1] = tested on: Eµ-myc lymphoma cells overexpressing Bcl-xL; experiment: Eµ-myc lymphoma cell viability, flow cytometry; assay type: cell-based, mice; details: increasing concentrations, 15 h
# mutant Mcl-1 R263A = target: T1, mutant Mcl-1 R263A (Homo sapiens, UniProt Q07820, R263A); experiment: BLI-based direct binding assay; details: compared with wild-type Mcl-1
# T1 construct: human Mcl-1 (residues 171–323); His tag (pHis-TEV vector) (N); made in house; host or cells: E. coli Rosetta2 DE3
# T1 sequence (Q07820 171-323 R263A): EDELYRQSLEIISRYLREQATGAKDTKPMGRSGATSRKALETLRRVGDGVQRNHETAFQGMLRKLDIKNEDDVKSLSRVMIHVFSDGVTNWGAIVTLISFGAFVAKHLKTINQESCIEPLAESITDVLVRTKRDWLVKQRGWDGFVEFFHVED
# Description: Mcl-1 and mutant Mcl-1 R263A proteins were biotinylated using the Thermo EZ-link Sulpho-NHS-LC-biotin biotinylation kit (cat. 21435). Protein and biotin were mixed in a 1:1 molar ratio in PBS on ice for 2 hours. The reaction mixture was dialyzed in PBS buffer to remove excess biotin. BLI experiments were performed using an OctetRED96 instrument from PALL/ForteBio. All experiments were performed at 30 °C using PBS (Gibco, #10010-23), and 0.005% Tween 20 as the assay buffer. Assays were conducted in 96-well, black, microplates (Greiner bio-one, #655209) containing the protein solutions for immobilization, pure assay buffer for dissociation, and serial dilutions of compounds in the presence of 5% DMSO to be tested. During the experiment, sample plates were continuously shaken at 1000 rpm. Biotinylated proteins were immobilized on Super Streptavidin (SSA) biosensors by dipping sensors into plate wells containing protein solutions. Biotinylated blocked Streptavidin sensors were used as control sensors prepared by the protocol provided from the manufacturer. Association (3 Minutes) and dissociation (3 Minutes) cycles of compounds were started by dipping sensors to compound wells with different tested concentrations as well as in pure buffer wells. Buffer-only reference was included in all assays. […]
# Mcl-1/Noxa interaction = tested on: Mcl-1/Noxa interaction; parameters: method as in PubChem BioAssay AID 1417; details: Dose Response Confirmation for Mcl-1/Noxa Interaction Inhibitors; ref PubChem BioAssay AID 1417; cited from earlier work
Structure (SMILES),effect on Eµ-myc cells overexpressing Bcl-xL [1],binding to mutant R263A Mcl-1 (BLI) (mutant Mcl-1 R263A),IC50 (Mcl-1/Noxa interaction)
O=C(CSc1nnc(-c2ccco2)c(-c2ccco2)n1)Nc1cccc(C(F)(F)F)c1 [Compound 39],minimal effect,,
O=C(CSc1nnc(-c2ccco2)c(-c2ccco2)n1)Nc1ccccc1 [Compound 19],,no appreciable binding,3.1 µM
